Patent publication US5872207A, “N-terminal-marked peptides immobilized on glass beads and method of preparation and method of use thereof” (Sanofi Pharmaceuticals, Inc., priority 1995, dated 1999)
Ends that are not written are not given here. * marks the point of attachment. Hcp = 3-(7-hydroxy-4-coumarinyl)propionyl, N-terminal fluorescent marker, O=C(CCc1cc(=O)oc2cc(O)ccc12)*; silane glass bead = not defined here; Ahx = NCCCCCC(=O)O

Key:
[1] = system: recombinant truncated collagenase; assay: Bioassay: cleavage of immobilized peptide by recombinant truncated collagenase, fluorescence of supernatant; assay type: biochemical; settings: for Mean Fluorescence Value ± Deviation: collagenase 10 nM, immobilized peptide 7.5 mg/mL, pH 7.5, 30-60 minutes, excitation 355 nm, emission 460 nm, mean of two measurements
From the text: In a second process aspect the invention is a biochemical assay method which comprises reacting in aqueous medium a protease and a substrate peptide or peptide having an amino acid-like moiety in place of an amino acid moiety thereof immobilized on glass beads by a C-terminal linker-anchor and marked by an N-terminal fluorescent marker, separating the resulting glass beads from the supernatant liquid, measuring the fluorescence of the supernatant liquid, and determining from the measured fluorescence the extent of cleavage of the substrate by the protease. By an additional step the site of cleavage of the substrate by the protease can be determined by sequential amino acid analysis.
The protease used was recombinant truncated collagenase of molecular weight 19,000, which was stored at 4° C. as a 10 μM stock aqueous solution and diluted to 30 nM just prior to carrying out the assay with aqueous buffer solution containing tromethamine (TRIS, 50 mM), sodium chloride solution (0.2M), calcium chloride (10 mM), and octoxynol-9 to 10 (Triton X-100, 0.1% v/v), whose pH was adjusted to 7.5 with aqueous sodium hydroxide solution and which was filtered and stored at 4° C. A 2- to 3-mg sample of the immobilized peptide was weighed into a 1.5-mL polypropylene microfuge tube. Sufficient buffer solution was added with vortexing to wet the immobilized peptide and make the concentration thereof 7.5 mg/mL. Sufficient collagenase solution was added to make the concentration thereof 10 nM, the tube was vortexed mechanically for 30-60 minutes, and the reaction was stopped by centrifuging. Part of the supernatant solution (200 μL) was transferred to a well of a 96-well plate. Fluorescence was measured at an excitation wavelength of 355 nm and an emission wavelength of 460 nm. The following mean fluorescence values from two measurements were obtained from the immobilized peptides of Formulas IIIa-r.

[2] = molecular target: monoclonal antibody against β-endorphin; settings: Lam et al., Nature 354, 82-84 (1991); cited from earlier work
[3] = system: mouse monoclonal antibody 3E7; settings: Fodor et al., Science 251, 767-773 (1991); checkerboard on glass plate, epifluorescence microscope; cited from earlier work

Substance | Mean Fluorescence Value ± Deviation [1] | further results
IIIa (Hcp-GPLAMF; not fully specified (C-terminus); also: C-terminus linked via NH(CH2)3Si(OR)2O anchor to glass bead) | 2042.5 ± 13 | 
IIIb (Hcp-GPLAMF; not fully specified (C-terminus); also: C-terminus linked via NH(CH2)3Si(OR)2O anchor to glass bead) | 3824.5 ± 9 | 
IIIc (Hcp-GPLAMF; not fully specified (C-terminus); also: C-terminus linked via NH(CH2)3Si(OR)2O anchor to glass bead) | 5733.5 ± 132 | 
IIId (Hcp-GPLAMF; not fully specified (C-terminus); also: C-terminus linked via NH(CH2)3Si(OR)2O anchor to glass bead) | 6157.0 ± 72 | 
IIIf (Hcp-GPLAMF; not fully specified (C-terminus); also: C-terminus linked via NH(CH2)3Si(OR)2O anchor to glass bead) | 7559.5 ± 2551 | 
IIIg (Hcp-GPLAMF; not fully specified (C-terminus); also: C-terminus linked via NH(CH2)3Si(OR)2O anchor to glass bead) | 5374.5 ± 53 | extent of cleavage ([1]; immobilized peptides having the linker (Acp)7 (Formulas IIIg and IIIk-r)): underwent cleavage to the greatest extent
IIIi (Hcp-GPLAMF-{Ahx-Ahx-Ahx-Ahx-Ahx-Ahx-Ahx-Ahx-Ahx-silane glass bead}; not fully specified; reading uncertain; also: C-terminus linked via NH(CH2)3Si(OR)2O anchor to glass bead) | 4238.5 ± 192 | 
IIIj (Hcp-GPLAMF-{Ahx-Ahx-Ahx-Ahx-Ahx-Ahx-Ahx-Ahx-Ahx-Ahx-silane glass bead}; not fully specified; reading uncertain; also: C-terminus linked via NH(CH2)3Si(OR)2O anchor to glass bead) | 3662.5 ± 23 | 
IIIn (Hcp-GPLALF; not fully specified (C-terminus); also: C-terminus linked via NH(CH2)3Si(OR)2O anchor to glass bead) | 2964.5 ± 136 | 
IIIo (Hcp-GPLAAF; not fully specified (C-terminus); also: C-terminus linked via NH(CH2)3Si(OR)2O anchor to glass bead) | 328.1 ± 0 | 
IIIp (Hcp-GPLALA; not fully specified (C-terminus); also: C-terminus linked via NH(CH2)3Si(OR)2O anchor to glass bead) | 1913.5 ± 63 | 
YGGFL |  | Ki [2]: 17.5 ± 3.2 nM; binding / detection by antibody 3E7 [3]: showed fluorescence
YGGFQ |  | Ki [2]: 15 ± 1.7 nM

Second part, led by results:

Mean Fluorescence Value ± Deviation [1] | Substance | further results
5838.5 ± 170 | IIIe (Hcp-GPLAMF; not fully specified (C-terminus); also: C-terminus linked via NH(CH2)3Si(OR)2O anchor to glass bead) | 
4723.5 ± 213 | IIIh (Hcp-GPLAMF-{Ahx-Ahx-Ahx-Ahx-Ahx-Ahx-Ahx-Ahx-silane glass bead}; not fully specified; reading uncertain; also: C-terminus linked via NH(CH2)3Si(OR)2O anchor to glass bead) | 
3316.0 ± 57 | IIIk (Hcp-APLALF; not fully specified (C-terminus); also: C-terminus linked via NH(CH2)3Si(OR)2O anchor to glass bead) | 
707.9 ± 266 | IIIl (Hcp-GALALF; not fully specified (C-terminus); also: C-terminus linked via NH(CH2)3Si(OR)2O anchor to glass bead) | 
4283.0 ± 150 | IIIm (Hcp-GPAALF; not fully specified (C-terminus); also: C-terminus linked via NH(CH2)3Si(OR)2O anchor to glass bead) | 
379.5 ± 115 | IIIq (Hcp-AAALWAA; not fully specified (C-terminus); also: C-terminus linked via NH(CH2)3Si(OR)2O anchor to glass bead) | 
